Reference: patent publication US5962294A, “Compositions and methods for the identification and synthesis of sialyltransferases” (The Regents of the University of California, priority 1993, dated 1999)
Entries after “also recorded” stand apart in the source; their conditions may differ.

T1: ST3O (Sus scrofa, UniProt Q02745)
T1 sequence (Q02745 28-343 limits assumed): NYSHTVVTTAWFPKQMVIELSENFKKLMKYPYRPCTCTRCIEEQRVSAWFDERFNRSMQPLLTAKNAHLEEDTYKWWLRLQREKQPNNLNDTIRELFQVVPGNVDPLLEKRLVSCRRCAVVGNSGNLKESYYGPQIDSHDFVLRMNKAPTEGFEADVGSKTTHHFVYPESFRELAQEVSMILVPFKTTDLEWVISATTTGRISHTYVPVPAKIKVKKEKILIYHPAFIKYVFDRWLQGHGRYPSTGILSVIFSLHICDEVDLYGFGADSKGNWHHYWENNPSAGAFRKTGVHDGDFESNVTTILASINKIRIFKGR

T2: ST3N (Rattus norvegicus, UniProt Q02734)
T2 sequence (Q02734 29-374 limits assumed): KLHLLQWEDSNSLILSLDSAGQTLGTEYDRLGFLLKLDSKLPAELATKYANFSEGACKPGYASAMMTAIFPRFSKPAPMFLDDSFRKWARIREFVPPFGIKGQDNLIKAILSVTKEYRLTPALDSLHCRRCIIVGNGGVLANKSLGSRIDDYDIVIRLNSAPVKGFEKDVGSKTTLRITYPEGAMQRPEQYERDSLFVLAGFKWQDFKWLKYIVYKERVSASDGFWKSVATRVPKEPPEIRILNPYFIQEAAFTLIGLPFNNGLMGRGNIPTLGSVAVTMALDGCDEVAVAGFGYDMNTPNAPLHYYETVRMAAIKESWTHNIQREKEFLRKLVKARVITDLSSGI

T3: ST3 (Homo sapiens, UniProt Q11206)
T3 construct: A truncated form of ST3, lacking the first 39 amino acids of the long-form open reading frame; made in house; host or cells: COS-1 (concentrated culture medium)
T3 sequence (Q11206 41-333): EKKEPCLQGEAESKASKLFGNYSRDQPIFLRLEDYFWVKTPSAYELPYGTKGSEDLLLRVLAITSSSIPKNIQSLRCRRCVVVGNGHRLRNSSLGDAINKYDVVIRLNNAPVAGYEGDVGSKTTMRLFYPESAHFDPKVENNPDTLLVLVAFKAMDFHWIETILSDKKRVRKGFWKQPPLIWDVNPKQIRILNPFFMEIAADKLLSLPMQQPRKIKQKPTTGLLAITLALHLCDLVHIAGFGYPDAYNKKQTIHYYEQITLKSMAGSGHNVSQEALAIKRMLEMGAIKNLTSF

T4: rat ST3N (Rattus norvegicus, UniProt Q02734)
T4 sequence (Q02734 29-374 limits assumed): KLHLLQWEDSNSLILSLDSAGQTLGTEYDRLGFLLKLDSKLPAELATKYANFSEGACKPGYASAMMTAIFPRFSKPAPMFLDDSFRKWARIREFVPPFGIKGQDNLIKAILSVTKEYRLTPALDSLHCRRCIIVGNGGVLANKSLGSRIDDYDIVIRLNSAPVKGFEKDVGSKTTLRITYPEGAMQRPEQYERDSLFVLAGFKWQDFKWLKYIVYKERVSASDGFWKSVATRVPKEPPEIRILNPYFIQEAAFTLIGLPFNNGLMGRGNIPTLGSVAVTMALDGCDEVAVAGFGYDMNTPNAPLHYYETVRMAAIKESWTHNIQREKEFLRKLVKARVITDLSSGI

T5: human ST3N (Homo sapiens, UniProt Q11203)
T5 sequence (Q11203 62-375): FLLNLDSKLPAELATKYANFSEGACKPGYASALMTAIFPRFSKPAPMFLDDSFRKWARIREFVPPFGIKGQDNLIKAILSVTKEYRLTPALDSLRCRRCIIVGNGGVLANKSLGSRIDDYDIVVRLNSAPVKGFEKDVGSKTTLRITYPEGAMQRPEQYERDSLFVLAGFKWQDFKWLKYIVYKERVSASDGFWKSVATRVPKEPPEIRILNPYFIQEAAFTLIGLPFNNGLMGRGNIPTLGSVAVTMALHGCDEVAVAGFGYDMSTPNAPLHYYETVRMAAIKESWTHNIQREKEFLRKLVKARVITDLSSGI

B1: Form A: 48 kDa molecular weight form of the porcine liver α2,3 sialyltransferase (protein)
chain: TLKLLTLLVLFIFLTSFFLNYSHTVVTTAWFPKQMVIELSENFKKLMKYPYRPCTCTRCIEEQRVSAWFDERFNRSMQPLLTAKNAHLEEDTYKWWLRLQREKQPNNLNDTIRELFQVVPGNVDPLLEKRLVSCRRCAVVGNSGNLKESYYGPQIDSHDFVLRMNKAPTEGFEADVGSKTTHHFVYPESFRELAQEVSMILVPFKTTDLEWVISATTTGTISHTYVPVPAKIKVKKEKILIYHPAFIKYVFDRWLQGHGRYPSTGILSVIFSLHICDEVDLYGFGADSKGNWHHYWENNPSAGAFRKTGVHDGDFESNVTTILASINKIRIFKGR
B2: porcine Galβ1,3GalNAc α2,3 sialyltransferase (protein)
chain: NYSHTVVTTAWFPKQMVIELSENFKKLMKYPYRPCTCTRCIEEQRVSAWFDERFNRSMQPLLTAKNAHLEEDTYKWWLRLQREKQPNNLNDTIRELFQVVPGNVDPLLEKRLVSCRRCAVVGNSGNLKESYYGPQIDSHDFVLRMNKAPTEGFEADVGSKTTHHFVYPESFRELAQEVSMILVPFKTTDLEWVISATTTGTISHTYVPVPAKIKVKKEKILIYHPAFIKYVFDRWLQGHGRYPSTGILSVIFSLHICDEVDLYGFGADSKGNWHHYWENNPSAGAFRKTGVHDGDFESNVTTILASINKIRIFKGR

What was measured:
ST3O = molecular target: T1, ST3O; test: Acceptor specificity of ST3O (Table 4); conditions: for Relative rate (%) ST30: acceptor 0.2 mM
ST3N = molecular target: T2, ST3N; test: Acceptor specificity of ST3N (Table 4)
ST3 = molecular target: T3, ST3; test: Acceptor specificity of soluble ST3 (AZ3, concentrated COS-1 media); assay type: biochemical; conditions: for Relative rate (%) ST3: acceptor 0.2 mM
rat ST3N = molecular target: T4, rat ST3N; test: Acceptor specificity of soluble rat ST3N fusion protein (Table 3); conditions: acceptor 0.2 mM; relative to LNT
human ST3N = molecular target: T5, human ST3N; test: Acceptor specificity of soluble human ST3N (protein A fusion from COS-1 cells, on IgG Sepharose); conditions: acceptor 0.2 mM; relative to LNT
[1] = test system: acceptor substrate antifreeze glycoprotein (AFGP); test: Sialyltransferase activity of purified porcine liver α2,3-0 sialyltransferase; assay type: biochemical; conditions: after third CDP-hexanolamine agarose column
From the text: FIG. 4 Purification of the α2,3-0 sialyltransferase on CDP-hexanolamine agarose (column III, CDP elution). […] In columns A and B elution of enzyme activity correlated predominantly with 48 kDa and a 45 kDa protein species, respectively (see inset, SDS-PAGE). These two species, form A and form B of the α2,3 sialyltransferase, had specific activities of 8-10 units/mg protein. The 48 kDA and 45 kDA species were blotted to a PVDF membrane and analyzed by NH2 -terminal sequencing.
The enzyme was purified from a porcine liver Triton X-100 extract by affinity chromatography on three successive columns of CDP-hexanolamineagarose. The elution profile from the first and third purification steps are shown in FIG. 3 and FIG. 4, respectively. […] These two peaks were separated by combining the indicated fractions into pools A and B, these two pools were subsequently found to be enriched in two different molecular weight forms of the α2,3-0 sialyltransferase.
The membranes were extracted three times with buffer (Conradt, H. S. et al., in Sialic Acids 1988 Proceedings of the Japanese-German Symposium on Sialic Acids (Schauer and Yamakawa, eds.) pp. 104-105, Verlag Wissenschaft and Bildung, Kiel [1988]) and the extract was passed over a 1.5 l CDP-hexanolamine agarose column (column 1) (16 umol/ml). After washing the column with 3 L buffer B, the column was eluted with a linear gradient of 0.05 to 1.0 M KCL (2.5 l×2.5 l) in buffer B. Fractions containing α2,3 sialyltransferase were combined into two pools A and B, representing the main part and the trailing end of the peak, respectively (see FIG. 3). The pools were dialysed against buffer B and subjected to another round of affinity chromatography on CDP-hexanolamine agarose (columns IIA and IIB). A 150 ml column was used for pool A and a 30 ml column was used for pool B; two preparations from column I (from total of 4 kg liver) were loaded on the same column in step II. […]

Molecule | Relative rate (%) ST30 (ST3O) [%] | Relative rate (%) ST3N (ST3N; acceptor 0.2 mM) [%] | acceptor substrate for ST3 enzyme (in words) (ST3) | Relative rate (%) ST3N (ST3N; acceptor 2.0 mM) [%] | further results
GalNAcβ1,4Galβ1,4Glcβ1-Cer [GalNAcβ1,4Galβ1,4Glcβ1-Cer (Asialo-GM2)] | 0.5 | 0 |  |  | 
Galβ1,3GalNAcβ1,4(NeuAcα2-3)Galβ1,4Glcβ1-Cer | 47 | 0 | also serving as substrates, but to a lesser extent |  | acceptor substrate for ST30 enzyme (in words) (ST3O): well
CC(=O)N[C@H]1[C@H](O[C@H]2[C@@H](O)[C@@H](CO)O[C@@H](O[C@H]3[C@H](O)[C@@H](O)C(O)O[C@@H]3CO)[C@@H]2O)O[C@H](CO)[C@@H](O[C@@H]2O[C@H](CO)[C@H](O)[C@H](O)[C@H]2O)[C@@H]1O[C@@H]1O[C@@H](C)[C@@H](O)[C@@H](O)[C@@H]1O (stereo partly shown) [Galβ1,4(Fucα1,3)GlcNAcβ1,3Galβ1,4Glc] | 0 | 0 |  | 0 | 
Galβ1,3GalNAcβ1,4Galβ1,4Glcβ1-Cer | 88 | 8 | preferred one |  | Relative rate (%) ST3 (ST3): 64%; acceptor substrate for ST30 enzyme (in words) (ST3O): well
intact fetuin: glycoprotein examined as acceptor |  |  | not any significant amount of sialic acid incorporated |  | 
CC(=O)N[C@H]1C(O)O[C@H](CO)[C@H](O)[C@@H]1O[C@@H]1O[C@H](CO)[C@H](O)[C@H](O)[C@H]1O (stereo partly shown) [Galβ1,3GalNAc] | 100 | 3 |  | 10 | 
Asialofetuin: glycoprotein acceptor (Galβ1,3GalNAc-Thr/Ser and Galβ1,4GlcNAc-R) | 26 | 18 | sialic acid was incorporated; also recorded: best acceptor |  | 
CC(=O)N[C@H]1[C@H](O[C@H]2[C@@H](O)[C@@H](CO)O[C@@H](O[C@H]3[C@H](O)[C@@H](O)C(O)O[C@@H]3CO)[C@@H]2O)O[C@H](CO)[C@@H](O[C@@H]2O[C@@H](C)[C@@H](O)[C@@H](O)[C@@H]2O)[C@@H]1O[C@@H]1O[C@H](CO)[C@H](O)[C@H](O)[C@H]1O (stereo partly shown) [Galβ1,3(Fucα1,4)GlcNAcβ1,3Galβ1,4Glc] | 0 | 0 |  | 0 | 
GalNAcβ1,4(NeuAcα2-3)Galβ1,4Glcβ1-Cer | 0.3 | 0 |  |  | Relative rate (%) ST3 (ST3): 1%
NeuAcα2,3Galβ1,4Glcβ1-Cer [NeuAcα2,3Galβ1,4Glcβ1-Cer (GM3)] | 0.1 | 0 |  |  | 
CC(=O)N[C@H]1[C@H](O[C@H]2[C@@H](O)[C@@H](CO)O[C@@H](O[C@H]3[C@H](O)[C@@H](O)C(O)O[C@@H]3CO)[C@@H]2O)O[C@H](CO)[C@@H](O)[C@@H]1O[C@@H]1O[C@H](CO)[C@H](O)[C@H](O)[C@H]1O (stereo partly shown) [Galβ1,3GlcNAcβ1,3Galβ1,4Glc (LNT), Galβ1,3GlcNAcβ1,3Galβ1,4Glc] | 0.5 | 100 |  | 100 | Relative activity (%) Rat (rat ST3N): 100%
CC(=O)N[C@H]1C(O)O[C@H](CO)[C@@H](O[C@@H]2O[C@H](CO)[C@H](O)[C@H](O)[C@H]2O)[C@@H]1O (stereo partly shown) [Galβ1,4GlcNAc] | 0 | 19 |  | 46 | Relative activity (%) Rat (rat ST3N): 19%; Relative activity (%) Human (human ST3N): 22%
CC(=O)N[C@H]1[C@H](O[C@H]2[C@@H](O)[C@@H](CO)O[C@@H](O[C@H]3[C@H](O)[C@@H](O)C(O)O[C@@H]3CO)[C@@H]2O)O[C@H](CO)[C@@H](O[C@@H]2O[C@H](CO)[C@H](O)[C@H](O)[C@H]2O)[C@@H]1O (stereo partly shown) [Galβ1,4GlcNAcβ1,3Galβ1,4Glc (LNnT), Galβ1,4GlcNAcβ1,3Galβ1,4Glc] | 0 | 4 |  | 18 | Relative activity (%) Rat (rat ST3N): 4%
α1 -acid glycoprotein: intact glycoprotein examined as acceptor |  |  | not any significant amount of sialic acid incorporated |  | 
Galβ1,4Glcβ1-Cer [Galβ1,4Glcβ1-Cer (LacCer)] | 0.1 | 0 | low but significant level incorporation |  | 
Galβ1,4GlcNAcβ1,3Galβ1,4Glcβ1-Cer [Galβ1,4GlcNAcβ1,3Galβ1,4Glcβ1-Cer (nLc4)] |  |  | also serving as substrates, but to a lesser extent |  | 
B1 |  |  |  |  | specific activity [1]: 8-10 units/mg protein
B2 |  |  |  |  | specific activity [1]: 8-10 units/mg protein
